These results are taken from patent publication US20050158435A1, “Process for producing sdg and foods and drinks containing the same” (Suntory Limited, priority 2002, published 2005).

Common to all, as to assay type: in vivo, rat
Assay [1] concerns ovariectomized rats. The assay is described as follows: Antiobesity effect: body weight changes in ovariectomized rats. The conditions noted are these: forced oral administration once a day for 14 days after ovariectomy (FIG. 2). The text has this: Female Wister-strain rats at 7 weeks of age were ovariectomized and treated with each sample once a day by forced oral administration using a metal gastric tube for 14 days after surgery. Each group consisted of 8 animals (n=8). The animals were weighed to evaluate the effect on obesity due to increased appetite after the menopause. The samples used were 17β estradiol as a positive control and genistein as a reference sample, which is a major compound of soybean isoflavone. The SDG sample was composition 4.

Assay [2] deals with ovariectomized rats. The assay is described as follows: Uterine weight in ovariectomized rats. The text has this:
(§1) Wistar-strain female rats (Charles River Japan, Inc.) were used, among which 41 animals were ovariectomized at 6 weeks of age and 9 animals were sham-operated at the same age, and raised on not-purified chow (CE 2; Clea Japan). After a week, the ovariectomized rats were divided into […]. The sham-operated non-ovariectomized group […] was used as a positive control.
Group I and group V and non-ovariectomized group had free access for 4 weeks to a basic diet consisting of AIN-93M Mix purified diet without Ca (Oriental Yeast Co., Ltd.). Group II, group III and group IV were fed with the basic diet supplemented with 0.1% each of soybean isoflavone, SDG (composition 4), and a combination of soybean isoflavone and SDG, respectively. Group V was treated with 17β estradiol at 1 μg/day by subcutaneous administration through the period of ingesting the test diet. During the raising period, the temperature at the tail skin of the rat was measured with a precision thermometer BAT-12R (Physitemp).
At the end of the studies in Example 7, the rats were autopsied and measured for uterine weight.

Assay [3] has as its system ovariectomized rats. Briefly: Bone mass (femoral dry weight) in ovariectomized rats. The conditions noted are these: 4 weeks. From the text:
(§2) It is known that after the menopause bone mass decreases through the activation of osteoclasts due to estrogen decline and causes osteoporotic symptoms. Estrogen decline may disturb the balance of lipid metabolism to cause symptoms such as hyperlipidemia and hypercholesterolemia. Ovariectomized female rats are commonly used as model animals of menopausal symptoms because ovariectomy induces the above symptoms due to the decline of estrogen levels. […] Wistar-strain female rats (Charles River Japan, Inc.) were used, among which 34 animals were ovariectomized (OVX) at 6 weeks of age and 9 animals were sham-operated (Sham) at the same age, and raised on not-purified chow (CE 2; Clea Japan). After 2 weeks, the ovariectomized rats were divided into 4 groups (n=8-9) called groups I to IV. The sham-operated non-ovariectomized group (group V, n=9) was used as a positive control. Group I and group V were free access for 4 weeks to a basic diet consisting of AIN-93M Mix purified diet without Ca (Oriental Yeast Co., Ltd.). […] On the end date of raising the rats, they were weighed and then anatomized to collect blood and dissect the right femur. After adherent tissues were removed, the femur dissected from the rat's right leg was dried at 100° C. for 24 hours and weighed.

Assay [4] deals with ovariectomized rats. The assay is described as follows: Blood triglyceride levels in ovariectomized rats. The settings on record: 0.1% in diet, 4 weeks.
Excerpt: as §2, with “Evaluation of lipid metabolism-improving effect: Plasma was isolated” for “After adherent tissues were removed, the femur dissected”, “rat blood and assayed” for “the rat's right leg was dried at 100° C.”, “triglyceride by an automatic analyzer (Hitachi).” for “24 hours and weighed.”

Assay [5] deals with ovariectomized rats. The assay is described as follows: Hot flashes model: temperature at the tail skin of ovariectomized rats. The conditions noted are these: 0.1% in diet, 4 weeks (FIG. 3). As to the method:
A sharp decline of estrogen levels after the menopause invites hormone imbalance and autonomic failure to cause vasomotor disturbance-like symptoms such as hot flashes. In experimental animals, ovariectomy of female rats induces a rise in the temperature at the tail skin and symptoms corresponding to hot flashes among menopausal symptoms. The temperature at the tail skin was measured in ovariectomized rats treated with SDG and soybean isoflavone.
as §1
Group I and group V and non-ovariectomized group had free access for 4 weeks to a basic diet consisting of AIN-93M Mix purified diet without Ca (Oriental Yeast Co., Ltd.). Group II, group III and group IV were fed with the basic diet supplemented with 0.1% each of soybean isoflavone, SDG (composition 4), and a combination of soybean isoflavone and SDG, respectively. […] During the raising period, the temperature at the tail skin of the rat was measured with a precision thermometer BAT-12R (Physitemp).

As for `C[C@]12CC[C@@H]3c4ccc(O)cc4CC[C@H]3[C@@H]1CC[C@@H]2O` [17β estradiol], in the assay with ovariectomized rats [1] (0.02 mg/kg), the Body weight gain entry is given as “body weight gain was inhibited”. Moreover, in the assay on ovariectomized rats [2] (1 μg/day subcutaneous administration, ***P < 0.001 vs. group I), the Uterine weight was 443.9 ± 28.8*** mg. Besides, the Uterine atrophy entry with ovariectomized rats [2] (autopsy at the end of Example 7) is “did not show uterine atrophy”.
As for `O=c1c(-c2ccc(O)cc2)coc2cc(O)cc(O)c12` [genistein], in the assay with ovariectomized rats [1] (100 mg/Kg), the Body weight gain result was “body weight gain was inhibited”.
As to “secoisolariciresinol diglycoside [composition 4]”, the “Femoral dry weight (per 100 g body weight)” value in the assay on ovariectomized rats [3] (ovariectomized Wistar female rats, basic diet supplemented with 0.1% of sample) came out at 90.9 ± 2.7 mg. Besides, the “Inhibition of bone mass decline vs group I (ovariectomized control)” value in the assay on ovariectomized rats [3] (ovariectomized rats, 0.1% in diet) was “tendency of inhibiting bone mass decline”. The “Inhibition of triglyceride increase vs group I” value in the assay on ovariectomized rats [4] was “significant inhibitory effect”. Also, the Blood triglyceride in the assay with ovariectomized rats [4] (plasma, *p<0.05, ** vs. group I) was 32.0 ± 3.2* mg/dl. Further, the Body weight gain entry in the assay on ovariectomized rats [1] (50 mg/Kg) is “body weight gain was inhibited”. The “Rise in the temperature at the tail skin” value in the assay with ovariectomized rats [5] was “the rise was inhibited”. Moreover, the Uterine weight in the assay with ovariectomized rats [2] (0.1% in diet, 4 weeks) is listed as 105.5 ± 6.8 mg.
